From patent publication US20260007599A1, “TICAGRELOR IV FORMULATIONS FOR USE IN THE TREATMENT OF GRAM-POSITIVE BACTEREMIA” (Hyloris Developments SA, priority 2023, published 2026)

How the values were obtained:
[1] = Solubilization of ticagrelor in unbuffered cyclodextrin stock solutions in milli Q water, appearance on shaking platform; format: physicochemical;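 for Appearance in cyclodextrin: plus means clear and fully dissolved while plus-minus means clear solution with precipitation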
Experimental: In a first example two different types of cyclodextrin were used and compared for the solubilization of ticagrelor. An unbuffered stock solution of HPBCD or SBECD was made in water at the target concentrations of 20 w/w %, 25 w/w %, 30 w/w %, 35 w/w % and 40 w/w %. Ticagrelor was added slowly under vortex. Ticagrelor was used at concentrations of 5, 10 or 14 mg/ml in milli Q water. The ticagrelor-cyclodextrin solutions were left on a shaking platform. No sonification or heat was applied.

[2] = test system: vancomycin-resistant E. Faecalis (VRE); details: ex-vivo; cited from earlier work
[3] = pH, osmolality, assay and impurities of undiluted batches; impact of buffer strength; format: physicochemical
Experimental: From the results obtained in Example 4 it follows that the concentration of excipients may be such that the resulting ticagrelor solution is hypertonic. The osmolality and pH of several batches was checked. […] In addition, a screening was conducted on the impact of buffer strength on pH and osmolality.

[4] = test system: Methicillin resistant Staphylococcus aureus (MRSA); details: ex-vivo; cited from earlier work
[5] = Impact of ticagrelor particle size on dissolution; format: physicochemical
Experimental: In a further example the impact of particle size on solubility was tested. Two different particle size diameters for the ticagrelor active ingredient were screened, 5.5 and 15 micrometers. The pH and osmolality were not affected.

[6] = Maximum solubility of ticagrelor in HPβCD solution without heat; format: physicochemical; details: without the use of heat
Source text: In a further example, the maximum solubility of ticagrelor in an HPβCD solution, without the use of heat, was investigated.

[7] = HPβCD 22.5% w/w, 19 mM phosphate buffer pH 7.5
[8] = HPβCD 25.0% w/w, 19 mM phosphate buffer pH 7.5
[9] = HPβCD 27.5% w/w, 19 mM phosphate buffer pH 7.5
[10] = HPβCD 30.0% w/w, 19 mM phosphate buffer pH 7.5
[11] = HPβCD 32.5% w/w, 19 mM phosphate buffer pH 7.5
[12] = phosphate buffer pH 7.5 strength 0.19 mM
[13] = phosphate buffer pH 7.5 strength 5 mM
[14] = phosphate buffer pH 7.5 strength 10 mM
[15] = phosphate buffer pH 7.5 strength 19 mM
[16] = particle distribution D90 5.5 μm, micronized
[17] = particle distribution D90 15 μm, unmicronized

CCCSc1nc(N[C@@H]2C[C@H]2c2ccc(F)c(F)c2)c2nnn([C@@H]3C[C@H](OCCO)[C@@H](O)[C@H]3O)c2n1 [ticagrelor, (1S,2S,3R,5S)-3-{7-[(1R,2S)-2-(3,4-difluorophenyl)cyclopropylamino]5-(propylthio)-3H-(1,2,3)triazolo (4,5-D)pyrimidin-3-yl}-5-(2 hydroxyethoxy) cyclopentane-1,2-diol]
Appearance in cyclodextrin ([1]; HPβCD 40% w/w, ticagrelor 14 mg/ml, after 3 h of shaking): +/−
Appearance in cyclodextrin ([1]; SBECD 35% w/w, ticagrelor 5 mg/ml, after 5 min of shaking): − (translucent solution with precipitation)
Appearance in cyclodextrin ([1]; SBECD 35% w/w, ticagrelor 5 mg/ml, after 30 min of shaking): +/−
Appearance in cyclodextrin ([1]; SBECD 35% w/w, ticagrelor 5 mg/ml, after 60 min of shaking): +/−
Appearance in cyclodextrin ([1]; SBECD 35% w/w, ticagrelor 5 mg/ml, after 3 h of shaking): +/−
Appearance in cyclodextrin ([1]; SBECD 35% w/w, ticagrelor 5 mg/ml, after overnight shaking): − (translucent solution with precipitation)
Appearance in cyclodextrin ([1]; SBECD 35% w/w, ticagrelor 10 mg/ml, after 5 min of shaking): − (translucent solution with precipitation)
Appearance in cyclodextrin ([1]; SBECD 35% w/w, ticagrelor 10 mg/ml, after 30 min of shaking): − (translucent solution with precipitation)
Appearance in cyclodextrin ([1]; SBECD 35% w/w, ticagrelor 10 mg/ml, after 60 min of shaking): − (translucent solution with precipitation)
Appearance in cyclodextrin ([1]; SBECD 35% w/w, ticagrelor 10 mg/ml, after 3 h of shaking): − (translucent solution with precipitation)
Appearance in cyclodextrin ([1]; SBECD 35% w/w, ticagrelor 10 mg/ml, after overnight shaking): − (translucent solution with precipitation)
Appearance in cyclodextrin ([1]; SBECD 35% w/w, ticagrelor 14 mg/ml, after 5 min of shaking): − (translucent solution with precipitation)
Appearance in cyclodextrin ([1]; SBECD 35% w/w, ticagrelor 14 mg/ml, after 30 min of shaking): − (translucent solution with precipitation)
Appearance in cyclodextrin ([1]; SBECD 35% w/w, ticagrelor 14 mg/ml, after 60 min of shaking): − (translucent solution with precipitation)
Appearance in cyclodextrin ([1]; SBECD 35% w/w, ticagrelor 14 mg/ml, after 3 h of shaking): − (translucent solution with precipitation)
Appearance in cyclodextrin ([1]; SBECD 35% w/w, ticagrelor 14 mg/ml, after overnight shaking): − (translucent solution with precipitation)
Appearance in cyclodextrin ([1]; SBECD 40% w/w, ticagrelor 10 mg/ml, after 5 min of shaking): − (translucent solution with precipitation)
Appearance in cyclodextrin ([1]; SBECD 40% w/w, ticagrelor 10 mg/ml, after 30 min of shaking): − (translucent solution with precipitation)
Appearance in cyclodextrin ([1]; SBECD 40% w/w, ticagrelor 10 mg/ml, after 60 min of shaking): − (translucent solution with precipitation)
Appearance in cyclodextrin ([1]; SBECD 40% w/w, ticagrelor 10 mg/ml, after 3 h of shaking): − (translucent solution with precipitation)
Appearance in cyclodextrin ([1]; SBECD 40% w/w, ticagrelor 10 mg/ml, after overnight shaking): − (translucent solution with precipitation)
Appearance in cyclodextrin ([1]; SBECD 40% w/w, ticagrelor 14 mg/ml, after 5 min of shaking): − (translucent solution with precipitation)
Appearance in cyclodextrin ([1]; SBECD 40% w/w, ticagrelor 14 mg/ml, after 30 min of shaking): − (translucent solution with precipitation)
Appearance in cyclodextrin ([1]; SBECD 40% w/w, ticagrelor 14 mg/ml, after 60 min of shaking): − (translucent solution with precipitation)
Appearance in cyclodextrin ([1]; SBECD 40% w/w, ticagrelor 14 mg/ml, after 3 h of shaking): − (translucent solution with precipitation)
Appearance in cyclodextrin ([1]; SBECD 40% w/w, ticagrelor 14 mg/ml, after overnight shaking): − (translucent solution with precipitation)
Appearance on standing ([1]; ticagrelor 5 mg/ml in HPBCD 40%, 35% or 30% w/w in milliQ water, at least three days at room temperature and several days at 4° C.): remained clear
minimal bactericidal concentration [2]: 20 microgram/ml
Assay [3, 7]: 98.15%
Osmolality undiluted [3, 7]: 392 mOsm/kg
Total impurities [3, 7]: 0.39%
pH undiluted [3, 7]: 7.67
Assay [3, 8]: 103.23%
Osmolality undiluted [3, 8]: 493 mOsm/kg
Total impurities [3, 8]: 0.41%
pH undiluted [3, 8]: 7.69
Assay [3, 9]: 104.27%
Osmolality undiluted [3, 9]: 549 mOsm/kg
Total impurities [3, 9]: 0.42%
pH undiluted [3, 9]: 7.69
Assay [3, 10]: 107.64%
Osmolality undiluted [3, 10]: 638 mOsm/kg
Total impurities [3, 10]: 0.44%
pH undiluted [3, 10]: 7.74
Assay [3, 11]: 99.26%
Osmolality undiluted [3, 11]: 813 mOsm/kg
Total impurities [3, 11]: 0.41%
pH undiluted [3, 11]: 7.68
Assay [3, 12]: 102.23%
Osmolality sample [3, 12]: 809 mOsm/kg
Total impurities [3, 12]: 0.42%
pH sample [3, 12]: 7.18
Assay [3, 13]: 100.49%
Osmolality sample [3, 13]: 703 mOsm/kg
Total impurities [3, 13]: 0.40%
pH sample [3, 13]: 7.66
Assay [3, 14]: 102.98%
Osmolality sample [3, 14]: 724 mOsm/kg
Total impurities [3, 14]: 0.42%
pH sample [3, 14]: 7.69
Assay [3, 15]: 102.58%
Osmolality sample [3, 15]: 758 mOsm/kg
Total impurities [3, 15]: 0.42%
pH sample [3, 15]: 7.70
minimal bactericidal concentration [4]: 20 microgram/ml
Dissolution time [5, 16]: 33 min
Osmolality [5, 16]: 751 mOsm/kg
pH [5, 16]: 7.68
Dissolution time [5, 17]: 125 min
Osmolality [5, 17]: 753 mOsm/kg
pH [5, 17]: 7.70
Ticagrelor (maximum solubility in HPβCD solution) ([6]; HPβCD 30% w/w): 8000 µg/mL
Ticagrelor (maximum solubility in HPβCD solution) ([6]; HPβCD 33% w/w): 9000 µg/mL
